Test results reported in patent US20230088704A1, “A PHARMACEUTICAL COMBINATION FOR THE TREATMENT OF A CANCER” (ABILITY PHARMACEUTICALS S.L., priority 2020, published 2023).

Columns and labels:
[1] = system: Human pancreatic cancer cells; test: Secretome of pancreatic cancer cells, chemokine antibody array; format: cell-based; conditions: ABTL0812 100 μM; 24 hours
Experimental: Methods: Human pancreatic cancer cells were treated with ABTL0812 at 100 μM for 24 hours and culture media was collected for its incubation using the RayBio C-Series Human Chemokine Antibody Array C1 (RayBiotec). Culture media was incubated with a membrane containing antibodies against 38 different chemokines. Afterwards, the membrane was incubated with secondary antibodies and further developed using HRP substrate.

[2] = system: human immortalized THP1 macrophages and human primary macrophages; test: Secretome of THP1 and primary macrophages, cytokine antibody array; format: cell-based
Experimental: Methods: Whole blood was collected from healthy donors, and circulating monocytes were purified using immunomagnetic separation. Monocytes were selected using anti-CD14 antibodies bound to magnetic beads, which were retained in the magnetic column and further eluted for culturing in vitro. Monocytes were differentiated to macrophages incubating with M-CSF1 at 20 ng/mL for 7 days. Once primary monocytes were differentiated to macrophages, these were polarized to M1 by incubation with LPS for 6 or 24 hours in the presence of ABTL0812 (50 or 100 μM). In parallel, differentiated macrophages were polarized to M2 by incubation with IL-4 and IL-13 for 24 hours in the presence of ABTL0812 (50 μM). THP-1 monocytes growing in suspension were differentiated to macrophages by incubation with PMA for 24 hours, inducing their attachment to the plates. Once THP-1 were differentiated to macrophages, these were polarized to M1 by incubation with LPS for 6 or 24 hours in the presence of ABTL0812 (50 μM). In parallel, differentiated macrophages were polarized to M2 by incubation with IL-4 and IL-13 for 24 hours in the presence of ABTL0812 (50 μM). The culture media from ABTL0812 treated M1, M2 and differentiated macrophages (M0) were incubated using the RayBio C-Series Human Cytokine Antibody Array C3 (RayBiotec). Culture media was incubated with a PVDF (Polyvinylidene fluoride) membrane containing antibodies against 42 different cytokines. After incubation of culture media, the membrane was incubated with secondary antibodies and further developed using HRP (Horseradish peroxidase) substrate.

[3] = system: THP-1 human macrophage cells; test: M1/M2 macrophage polarization, marker mRNA by RT-qPCR; format: cell-based
Experimental: Methods: THP-1 monocytes growing in suspension are differentiated to macrophages by incubation with PMA for 24 hours, inducing their attachment to the plates. Once THP-1 are differentiated to macrophages, these are polarized to M1 by incubation with LPS for 6 or 24 hours in the presence of ABTL0812 (50 or 100 μM). In parallel, differentiated macrophages are polarized to M2 by incubation with IL-4 and IL-13 for 24 hours in the presence of ABTL0812 (50 μM). Then, polarized macrophages are lysed, total RNA extracted, retrotranscribed to cDNA and mRNA levels of IL1β, TNFα (M1 markers) and […] (M2 marker) were evaluated by RT-qPCR using specific probes.

PD1 = PD1 expression in primary T cells by flow cytometry; format: cell-based, human; conditions: 6 hours
Experimental: Methods: Human PBMCs were purified from peripheral blood of healthy donors using Ficoll and cultured in vitro. Human T cells were activated by incubation with IL-2 and CD3 and CD28 antibodies for 10 days and then treated with ABTL0812 for 6 hours. Finally, levels of PD1 expressed in the membrane of T cells was analyzed by flow cytometry using specific antibodies. Results are indicated as % of positive cells and show the average of three independent experiments (t-test **p<0.01 and ***p<0.001).

[4] = system: endometrial carcinogenesis induced by the deletion of PTEN; test: Endometrial carcinogenesis induced by PTEN deletion; format: in vivo, mice; conditions: ABTL0812 120 mg/kg daily during 3 weeks
Experimental: Methods: Mice were injected with tamoxifen to induce PTEN deletion. Three weeks after tamoxifen administration, when animal has developed hyperplasias, animals were administered with ABTL0812 at 120 mg/kg daily or with vehicle during 3 weeks. At that time, vehicle treated animals (6 weeks after tamoxifen injection) develop neoplasias, which are quantified by immunohistochemistry of extracted uterus. After ABTL0812 treatment, animals were sacrificed, uterus extracted in paraffin-embedded for further immunohistochemical analysis by hematoxylin-eosin staining for carcinogenesis evaluation or with anti-CD3 to evaluate T lymphocyte infiltration within tumoral lesions, indicative of tumor microenvironment immunomodulation.

[5] = system: Human pancreatic cancer cells; test: Immunogenic cell death (ICD) hallmarks; format: cell-based; conditions: ABTL0812 0 to 150 μM; 24 hours
Experimental: Methods: Human pancreatic cancer cells were treated with increasing concentrations of ABTL0812 (ranging from 0 to 150 μM) for 24 hours, and ICD hallmarks extracellular Hmgb1 and ATP, surface Calreticulin, and caspases 3 and 8 activation, were evaluated by ELISA (Hmgb1 and ATP), flow cytometry (Calreticulin) and immunoblotting (Caspases 3 and 8). For extracellular Hmgb1 and ATP, culture media from ABTL0812 treated cells were collected and incubated with specific antibodies for further detection using colorimetric assay. For surface Calreticulin, cancer cells were collected and incubated with specific antibody for further detection using flow cytometry. For Caspase 3 and 8 activation, cancer cells were collected, protein lysate obtained, incubated with specific antibodies for further detection using immunoblotting and finally quantified using densitometry.

[6] = system: Ishikawa endometrial cancer cells; test: Co-culture of ABTL0812-treated cancer cells with activated T cells, MTT; format: cell-based, human; conditions: ABTL0812 50 μM 6 hours, then co-culture with activated T lymphocytes 24 hours
Experimental: Methods: human PBMCs were purified from peripheral blood of healthy donors using Ficoll and cultured in vitro. Human T cells were activated by incubation with IL-2 and CD3 and CD28 antibodies for 10 days. In parallel, Ishikawa endometrial cancer cells were treated with ABTL0812 at 50 μM for 6 hours and then co-cultured with activated T lymphocytes for 24 hours. Then, cell viability was assessed by the MTT assay. Untreated Ishikawa cells were used as controls.

[7] = common in immortalized THP1 cells and in primary macrophages
[8] = macrophages polarized to M1 (LPS 6 or 24 hours), ABTL0812 50 or 100 μM

CCCCC/C=C\C/C=C\CCCCCCC(O)C(=O)O (stereo not shown) [ABTL0812, COOH—CHOH—(CH2)6—(CH═CH—CH2)2—(CH2)3—CH3]
secreted CCL5 [1]: decrease | secreted CXCL6 [1]: decrease | secreted CXCL16 [1]: decrease | secreted angiogenin [1]: decrease | secreted IL-1β ([2]; ABTL0812 50 or 100 μM): upregulation | secreted TNF-α ([2]; ABTL0812 50 or 100 μM): upregulation | secreted CCL7 [2, 7]: inhibited | secreted CCL8 [2, 7]: inhibited | secreted CCL17 [2, 7]: inhibited | secreted CCL22 [2, 7]: inhibited | secreted IL-10 [2, 7]: inhibited | expression of IL-1β ([3]; differentiated macrophages without polarizing, ABTL0812 alone): significantly induce the expression of IL-1β | IL-1β mRNA levels [3, 8]: significantly potentiates | TNFα mRNA levels [3, 8]: significantly potentiates | IL-10 mRNA levels ([3]; macrophages polarized to M2 (IL-4 and IL-13, 24 hours), ABTL0812 50 μM): significantly suppresses | PD1 expression (PD1; activated (IL-2, CD3 and CD28 antibodies) human primary CD4 and CD8 T lymphocytes): induces the inhibition of PD1 expression | PD1 expression (PD1; non-activated human primary CD4 and CD8 T lymphocytes): induces the inhibition of PD1 expression | development of endometrial intraepithelial neoplasias (EIN) [4]: significant reduction in the development of endometrial intraepithelial neoplasias | CD3 T lymphocyte infiltration ([4]; anti-CD3 immunohistochemistry): induce the infiltration of CD3 T lymphocytes within tumoral lesions | animals with hyperplasias ([4]; hematoxylin-eosin staining): 80% | Caspase 3 and 8 activation [5]: dose dependent increase | extracellular ATP [5]: dose dependent increase | extracellular Hmgb1 [5]: dose dependent increase | surface Calreticulin [5]: dose dependent increase | cytotoxic effect of activated T cells on cancer cells [6]: potentiates the cytotoxic effect of activated T cells
